Measured values published in PubChem BioAssay (NCI).
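Following 48 hours of exposure in 96-well plates, responses at five concentrations were used to interpolate endpoints linearly. GI50: concentration for 50% inhibition of growth. TGI denotes the concentration required for complete inhibition of growth.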

Assays:
Assay in all cases: inhibition of tumour cell growth, NCI panel, 48 h
HL-60(TB) leukemia = tested on: HL-60(TB) leukemia
UO-31 renal = tested on: UO-31 renal
M14 melanoma = tested on: M14 melanoma
SK-MEL-2 melanoma = tested on: SK-MEL-2 melanoma
CAKI-1 renal = tested on: CAKI-1 renal
U251 CNS = tested on: U251 CNS
CCRF-CEM leukemia = tested on: CCRF-CEM leukemia
SN12C renal = tested on: SN12C renal
A498 renal = tested on: A498 renal
HCT-116 colon = tested on: HCT-116 colon
TK-10 renal = tested on: TK-10 renal
A549 NSCLC = tested on: A549 NSCLC
MDA-MB-231 breast = tested on: MDA-MB-231 breast
RXF 393 renal = tested on: RXF 393 renal
SF-268 CNS = tested on: SF-268 CNS
OVCAR-4 ovarian = tested on: OVCAR-4 ovarian
NCI-H522 lung = tested on: NCI-H522 lung
OVCAR-5 ovarian = tested on: OVCAR-5 ovarian
HCC-2998 colon = tested on: HCC-2998 colon
SK-MEL-5 melanoma = tested on: SK-MEL-5 melanoma
SW-620 colon = tested on: SW-620 colon
HCT-15 colon = tested on: HCT-15 colon
DU-145 prostate = tested on: DU-145 prostate
ACHN renal = tested on: ACHN renal
MCF7 breast = tested on: MCF7 breast
UACC-62 melanoma = tested on: UACC-62 melanoma
SR leukemia = tested on: SR leukemia
SF-295 CNS = tested on: SF-295 CNS
NCI-H460 lung = tested on: NCI-H460 lung
T-47D breast = tested on: T-47D breast
HOP-62 NSCLC = tested on: HOP-62 NSCLC
OVCAR-3 ovarian = tested on: OVCAR-3 ovarian
OVCAR-8 ovarian = tested on: OVCAR-8 ovarian
NCI-H23 lung = tested on: NCI-H23 lung
PC-3 prostate = tested on: PC-3 prostate
SK-MEL-28 melanoma = tested on: SK-MEL-28 melanoma
SNB-75 CNS = tested on: SNB-75 CNS
K-562 leukemia = tested on: K-562 leukemia
NCI-H226 lung = tested on: NCI-H226 lung
MALME-3M melanoma = tested on: MALME-3M melanoma
MOLT-4 leukemia = tested on: MOLT-4 leukemia
SF-539 CNS = tested on: SF-539 CNS
SK-OV-3 ovarian = tested on: SK-OV-3 ovarian
IGROV1 ovarian = tested on: IGROV1 ovarian
SNB-19 CNS = tested on: SNB-19 CNS
COLO 205 colon = tested on: COLO 205 colon
EKVX NSCLC = tested on: EKVX NSCLC
NCI/ADR-RES ovarian = tested on: NCI/ADR-RES ovarian
UACC-257 melanoma = tested on: UACC-257 melanoma
786-0 renal = tested on: 786-0 renal
HOP-92 NSCLC = tested on: HOP-92 NSCLC
KM12 colon = tested on: KM12 colon
RPMI-8226 leukemia = tested on: RPMI-8226 leukemia
MDA-MB-435 = tested on: MDA-MB-435
HT29 colon = tested on: HT29 colon
BT-549 breast = tested on: BT-549 breast
HS 578T breast = tested on: HS 578T breast

NS(=O)(=O)c1ccc(Nc2nc(Nc3ccccc3)nc(-n3nc(-c4ccccc4)cc3-c3ccccc3)n2)cc1
GI50 (HL-60(TB) leukemia): 2.24 µM
TGI (HL-60(TB) leukemia): 8.26 µM
GI50 (UO-31 renal): 2.38 µM
TGI (UO-31 renal): 10 µM
GI50 (M14 melanoma): 3.22 µM
TGI (M14 melanoma): 12.5 µM
GI50 (SK-MEL-2 melanoma): 2.39 µM
TGI (SK-MEL-2 melanoma): 6.95 µM
GI50 (CAKI-1 renal): 2.45 µM
TGI (CAKI-1 renal): 9.55 µM
GI50 (U251 CNS): 2.91 µM
TGI (U251 CNS): 10.3 µM
GI50 (CCRF-CEM leukemia): 2.94 µM
TGI (CCRF-CEM leukemia): > 100 µM
GI50 (SN12C renal): 1.47 µM
TGI (SN12C renal): 2.88 µM
GI50 (A498 renal): 3.34 µM
TGI (A498 renal): 8.08 µM
GI50 (HCT-116 colon): 1.74 µM
TGI (HCT-116 colon): 3.39 µM
GI50 (TK-10 renal): 3.87 µM
TGI (TK-10 renal): 8.93 µM
GI50 (A549 NSCLC): 3.18 µM
TGI (A549 NSCLC): 17.9 µM
GI50 (MDA-MB-231 breast): 1.81 µM
TGI (MDA-MB-231 breast): 3.85 µM
GI50 (RXF 393 renal): 1.99 µM
TGI (RXF 393 renal): 5.23 µM
GI50 (SF-268 CNS): 3.97 µM
TGI (SF-268 CNS): > 100 µM
GI50 (OVCAR-4 ovarian): 2.77 µM
TGI (OVCAR-4 ovarian): 9.32 µM
GI50 (NCI-H522 lung): 2.29 µM
TGI (NCI-H522 lung): 7.39 µM
GI50 (OVCAR-5 ovarian): 3.34 µM
TGI (OVCAR-5 ovarian): 14.3 µM
GI50 (HCC-2998 colon): 2.98 µM
TGI (HCC-2998 colon): 6.84 µM
GI50 (SK-MEL-5 melanoma): 2.33 µM
TGI (SK-MEL-5 melanoma): 5.54 µM
GI50 (SW-620 colon): 3.52 µM
TGI (SW-620 colon): 32.1 µM
GI50 (HCT-15 colon): 3.08 µM
TGI (HCT-15 colon): 11.2 µM
GI50 (DU-145 prostate): 3.16 µM
TGI (DU-145 prostate): 13 µM
GI50 (ACHN renal): 2.59 µM
TGI (ACHN renal): 9.95 µM
GI50 (MCF7 breast): 2.27 µM
TGI (MCF7 breast): 6.61 µM
GI50 (UACC-62 melanoma): 1.81 µM
TGI (UACC-62 melanoma): 3.76 µM
GI50 (SR leukemia): 1.94 µM
TGI (SR leukemia): 5.94 µM
GI50 (SF-295 CNS): 3.02 µM
TGI (SF-295 CNS): 10.5 µM
GI50 (NCI-H460 lung): 2.07 µM
TGI (NCI-H460 lung): 4.66 µM
GI50 (T-47D breast): 2.96 µM
TGI (T-47D breast): 13.2 µM
GI50 (HOP-62 NSCLC): 3.29 µM
TGI (HOP-62 NSCLC): 12.4 µM
GI50 (OVCAR-3 ovarian): 2.24 µM
TGI (OVCAR-3 ovarian): 4.97 µM
GI50 (OVCAR-8 ovarian): 3.22 µM
TGI (OVCAR-8 ovarian): 16 µM
GI50 (NCI-H23 lung): 2.84 µM
TGI (NCI-H23 lung): 9.12 µM
GI50 (PC-3 prostate): 2.37 µM
TGI (PC-3 prostate): 7.89 µM
GI50 (SK-MEL-28 melanoma): 3.87 µM
TGI (SK-MEL-28 melanoma): 16.9 µM
GI50 (SNB-75 CNS): 4.61 µM
TGI (SNB-75 CNS): > 100 µM
GI50 (K-562 leukemia): 2.62 µM
TGI (K-562 leukemia): 10.8 µM
GI50 (NCI-H226 lung): 2.52 µM
TGI (NCI-H226 lung): 11 µM
GI50 (MALME-3M melanoma): 2.43 µM
TGI (MALME-3M melanoma): 7.09 µM
GI50 (MOLT-4 leukemia): 1.51 µM
TGI (MOLT-4 leukemia): 6.47 µM
GI50 (SF-539 CNS): 2.66 µM
TGI (SF-539 CNS): 10.3 µM
GI50 (SK-OV-3 ovarian): 5.37 µM
TGI (SK-OV-3 ovarian): > 100 µM
GI50 (IGROV1 ovarian): 2.72 µM
TGI (IGROV1 ovarian): 11.4 µM
GI50 (SNB-19 CNS): 3.43 µM
TGI (SNB-19 CNS): 20.9 µM
GI50 (COLO 205 colon): 1.78 µM
TGI (COLO 205 colon): 3.27 µM
GI50 (EKVX NSCLC): 2.96 µM
TGI (EKVX NSCLC): 17.4 µM
GI50 (NCI/ADR-RES ovarian): 2.93 µM
TGI (NCI/ADR-RES ovarian): 11 µM
GI50 (UACC-257 melanoma): 3.26 µM
TGI (UACC-257 melanoma): 23.3 µM
GI50 (786-0 renal): 3.09 µM
TGI (786-0 renal): 10.6 µM
GI50 (HOP-92 NSCLC): 2.16 µM
TGI (HOP-92 NSCLC): 6.18 µM
GI50 (KM12 colon): 2.77 µM
TGI (KM12 colon): 8.2 µM
GI50 (RPMI-8226 leukemia): 2.49 µM
TGI (RPMI-8226 leukemia): 8.69 µM
GI50 (MDA-MB-435): 3.32 µM
TGI (MDA-MB-435): 12.9 µM
GI50 (HT29 colon): 2.38 µM
TGI (HT29 colon): 5.48 µM
GI50 (BT-549 breast): 2.24 µM
TGI (BT-549 breast): 5.54 µM
GI50 (HS 578T breast): 4.31 µM
TGI (HS 578T breast): 62.7 µM
